# In US20190374509A1, “Methods of Using Metamizole for Treatment of Pyrexia in Equines” (Kindred Biosciences, Inc., priority 2018, published 2019):
# System: horses
# Assay: Margin of safety study, IV three times daily for 9 days: clinical pathology (serum chemistry, hematology, urinalysis), body weight, physical examination
# Assay type: in vivo
# Procedure: A study was conducted to evaluate the margin of safety of metamizole when administered intravenously to horses for 9 days at doses of 0 mg/kg (0×), 30 mg/kg (1×), 60 mg/kg (2×), and 90 mg/kg (3×) of body weight three times daily (TID), every 8 hours±30 min.
# This was a prospective, blinded, randomized, placebo-controlled, parallel-group laboratory study in research horses. Thirty-two horses were enrolled in the study (Table 1).
# Treatment phase involved administration of the investigational drug or placebo. The investigational drug was a sterile injectable formulation of dipyrone (Zimeta™, Corden Pharma, Caponago, Italy) (500 mg/mL) in 100 mL glass bottles. The placebo was sterile injectable saline (Nova-Tech Inc, Grand Island, NE) (0.9% sodium chloride) in 500 mL plastic bottles labeled for veterinary use. Dipyrone treatment groups were 30 mg/kg (1×), 60 mg/kg (2×), and 90 mg/kg (3×). Placebo treatment group was saline administered at a volume to match the 3× dipyrone group (0×). The dose was calculated based on body weight and administered three times daily for nine consecutive days. Due to the large volume of injection at the higher dose groups, treatment was administered via indwelling intravenous (IV) catheters. Intravenous catheters were placed using standard techniques. Horses were sedated with xylazine (AnaSed® LA, VetOne, MWI, Boise, Id.) and the skin was desensitized with subcutaneous injection of lidocaine (VetOne, MWI, Boise, Id.). Intravenous catheters were replaced at the discretion of the study director and were maintained with heparinized saline flush prior to and following dose administration.
# Randomization occurred on Study Day −1. […] .
# All statistical analyses were performed using SAS, version 9.4 (SAS Institute, Cary, N.C.). The individual horse was the experimental unit in the statistical analysis. For statistical modeling, all main effects, interaction terms, and pairwise comparisons of the active groups (dipyrone) with the placebo group were assessed at the two-sided 0.10 significance level (unadjusted) with the exception of the three-way interaction, which was assessed at the two-sided 0.05 significance level (unadjusted).
# For continuous endpoints with repeated post-treatment measurements (serum chemistry, coagulation, hematology, urinalysis, body weight, body temperature, heart rate and respiratory rate), repeated measurement analysis of covariance (SAS MIXED procedure RMANCOVA) was used to evaluate a model including treatment, time, sex, treatment by sex interaction, treatment by time interaction, and treatment by time by sex three-way interaction as fixed effects. In addition, baseline values were included as a covariate and remained in the model regardless of its significance. Baseline values were defined as the values prior to and nearest to the first dosing.
# [1] = 1X, 30 mg/kg IV every 8 hours, Day 4
# [2] = 1X, 30 mg/kg IV every 8 hours, Day 8
# [3] = 1X, 30 mg/kg IV every 8 hours, Mares
# [4] = 2X, 60 mg/kg IV every 8 hours, Day 4
# [5] = 2X, 60 mg/kg IV every 8 hours, Day 8
# [6] = 2X, 60 mg/kg IV every 8 hours, Mares
# [7] = 3X, 90 mg/kg IV every 8 hours, Day 4
# [8] = 3X, 90 mg/kg IV every 8 hours, Day 8
# [9] = 3X, 90 mg/kg IV every 8 hours, Mares
compound,measurement,setting,value
"Cc1c(N(C)CS(=O)(=O)O)c(=O)n(-c2ccccc2)n1C [dipyrone, [(2,3-dihydro-1,5-dimethyl-3-oxo-2-phenyl-1H-pyrazol-4-yl)methylamino] methanesulfonic acid]",Absolute Basophil Count Day 4 Range,[1],0.00-0.19 cells 10^3/μL
same,Cholesterol Day 4 Range,[1],54 to 77 mg/dL
same,Cholesterol LS Means,[1],65.352 mg/dL
same,Creatinine Day 4 Range,[1],0.9 to 2.0 mg/dL
same,Mean Corpuscular Hemoglobin Concentration Day 4 Range,[1],34.9 to 36.1 g/dL
same,Mean Corpuscular Volume Day 4 Range,[1],40.8 to 48.7 fL
same,Mean Corpuscular Volume LS Means,[1],46.512 fL
same,Percent Basophil Day 4 Range,[1],0.0-2.3%
same,Total Bilirubin Day 4 Range,[1],0.8 to 3.4 mg/dL
same,Total Bilirubin LS Means,[1],2.301 mg/dL
same,Absolute Basophil Count Day 8 Range,[2],0.00-0.52 cells 10^3/μL
same,Cholesterol Day 8 Range,[2],64 to 87 mg/dL
same,Creatinine Day 8 Range,[2],0.6 to 1.6 mg/dL
same,Creatinine LS Means,[2],1.118 mg/dL
same,Mean Corpuscular Hemoglobin Concentration Day 8 Range,[2],34.1 to 39.4 g/dL
same,Mean Corpuscular Hemoglobin Concentration LS Means,[2],35.513 g/dL
same,Mean Corpuscular Volume Day 8 Range,[2],40.8 to 49.3 fL
same,Mean Corpuscular Volume LS Means,[2],47.000 fL
same,Percent Basophil Day 8 Range,[2],0.0-2.6%
same,Total Bilirubin Day 8 Range,[2],1.7 to 4.1 mg/dL
same,Total Bilirubin LS Means,[2],2.914 mg/dL
same,Percent Basophil LS Means,"1X, 30 mg/kg IV every 8 hours, Geldings",0.849%
same,Absolute Basophil Count LS Means,[3],0.200 cells 10^3/μL
same,Percent Basophil LS Means,[3],1.374%
same,Absolute Basophil Count Day 4 Range,[4],0.00-0.12 cells 10^3/μL
same,Cholesterol Day 4 Range,[4],43 to 74 mg/dL
same,Cholesterol LS Means,[4],56.772 mg/dL
same,Creatinine Day 4 Range,[4],1.1 to 2.0 mg/dL
same,Mean Corpuscular Hemoglobin Concentration Day 4 Range,[4],34.2 to 36.1 g/dL
same,Mean Corpuscular Volume Day 4 Range,[4],41.7 to 49.4 fL
same,Mean Corpuscular Volume LS Means,[4],46.284 fL
same,Percent Basophil Day 4 Range,[4],0.0-1.3%
same,Total Bilirubin Day 4 Range,[4],1.6 to 4.0 mg/dL
same,Total Bilirubin LS Means,[4],2.745 mg/dL
same,Absolute Basophil Count Day 8 Range,[5],0.00-0.21 cells 10^3/μL
same,Cholesterol Day 8 Range,[5],52 to 87 mg/dL
same,Creatinine Day 8 Range,[5],0.6 to 1.4 mg/dL
same,Creatinine LS Means,[5],0.958 mg/dL
same,Mean Corpuscular Hemoglobin Concentration Day 8 Range,[5],32.9 to 35.5 g/dL
same,Mean Corpuscular Hemoglobin Concentration LS Means,[5],34.080 g/dL
same,Mean Corpuscular Volume Day 8 Range,[5],43.2 to 50.8 fL
same,Mean Corpuscular Volume LS Means,[5],47.134 fL
same,Percent Basophil Day 8 Range,[5],0.0-2.7%
same,Total Bilirubin Day 8 Range,[5],1.6 to 6.1 mg/dL
same,Total Bilirubin LS Means,[5],4.495 mg/dL
same,Percent Basophil LS Means,"2X, 60 mg/kg IV every 8 hours, Geldings",0.949%
same,Absolute Basophil Count LS Means,[6],0.059 cells 10^3/μL
same,Percent Basophil LS Means,[6],0.520%
same,Absolute Basophil Count Day 4 Range,[7],0.00-0.39 cells 10^3/μL
same,Cholesterol Day 4 Range,[7],43 to 73 mg/dL
same,Cholesterol LS Means,[7],54.144 mg/dL
same,Creatinine Day 4 Range,[7],1.1 to 2.1 mg/dL
same,Mean Corpuscular Hemoglobin Concentration Day 4 Range,[7],34.3 to 36.0 g/dL
same,Mean Corpuscular Volume Day 4 Range,[7],43.0 to 50.4 fL
same,Mean Corpuscular Volume LS Means,[7],46.560 fL
same,Percent Basophil Day 4 Range,[7],0.0-4.0%
same,Total Bilirubin Day 4 Range,[7],1.7 to 5.5 mg/dL
same,Total Bilirubin LS Means,[7],3.074 mg/dL
same,Absolute Basophil Count Day 8 Range,[8],0.00-0.41 cells 10^3/μL
same,Cholesterol Day 8 Range,[8],55 to 96 mg/dL
same,Creatinine Day 8 Range,[8],0.7 to 1.6 mg/dL
same,Creatinine LS Means,[8],1.144 mg/dL
same,Mean Corpuscular Hemoglobin Concentration Day 8 Range,[8],33.1 to 34.5 g/dL
same,Mean Corpuscular Hemoglobin Concentration LS Means,[8],33.899 g/dL
same,Mean Corpuscular Volume Day 8 Range,[8],43.8 to 51.3 fL
same,Mean Corpuscular Volume LS Means,[8],47.708 fL
same,Percent Basophil Day 8 Range,[8],0.0-2.1%
same,Total Bilirubin Day 8 Range,[8],2.8 to 6.2 mg/dL
same,Total Bilirubin LS Means,[8],4.579 mg/dL
same,Percent Basophil LS Means,"3X, 90 mg/kg IV every 8 hours, Geldings",0.924%
same,Absolute Basophil Count LS Means,[9],0.188 cells 10^3/μL
same,Percent Basophil LS Means,[9],1.731%
same,"Urinalysis, body weights, and physical examination parameters","30, 60, 90 mg/kg IV every 8 hours for 9 days vs placebo",No significant differences
